Reference: patent US11274100B2, “EP300/CREBBP inhibitor” (Daiichi Sankyo Company, Limited, priority 2017, dated 2022)

How the values were obtained:
TE-8 cells = test: Cell growth inhibitory activity, TE-8 cells (Test Example 3); assay type: cell-based; conditions: Homo sapiens, 72 h, cultured for 3 days, CellTiter-Glo
Method: (§1) [Test Example 3] Evaluation of Cell Growth Inhibitory Activity
(§2) As a culture medium for each cell, a 10% FBS supplemented RPMI 1640 medium (for LK2 cells and TE-8 cells derived from human esophageal cancer) was used. LK2 cells were purchased from Human Science Research Resources Bank, and TE-8 cells were purchased from Riken Cell Bank. The compound of each of Examples 1 to 108b was prepared by dilution with Freedom EVO 150 (Tecan Trading AG) (4-fold diluted, 10 stages, 10 mM to 38 nM). The resultant was added to respective wells of a 384-well plate in an amount of 40 nL/well using Echo 555 (Labcyte Inc.). The LK2 or TE-8 cells were seeded in the plate at 400 cells/40 μL/well (day 0), and were cultured for 3 days. On the day of addition of the compound (day 0) and 3 days after the addition of the compound (day 3), an ATP measurement reagent of CellTiter-Glo (registered trademark) 2.0 Assay (Promega Corporation, #G9242) was added to each well in an amount of 10 μL/well, and the amount of luminescence of each well was measured using EnVision. Based on the amount of luminescence (C0) on the day of the addition of the compound, and the amounts of luminescence of a compound non-addition group (C3) and a compound addition group (T3) obtained after the 3-day culture of the compound, a cell survival rate was calculated in accordance with the following expression: Cell survival rate (%)=(T3−C0)/(C3−C0)×100
(§3) A concentration (GI50 value) of each compound at which the growth of the TE-8 or LK-2 cells was inhibited by 50% was calculated by semilogarithmically plotting the cell survival rate at each concentration and the compound concentration.

LK2 cells = test: Cell growth inhibitory activity, LK2 cells (Test Example 3); assay type: cell-based; conditions: Homo sapiens, LK-2, 72 h, cultured for 3 days, CellTiter-Glo
Method: as §1, §2, §3

H3K27Ac = test: Intracellular H3K27Ac inhibitory activity in LK2 cells (Test Example 2); assay type: cell-based; conditions: Homo sapiens, LK-2, cultured with compound for 3 hours, read-out: Test Example 2 H3K27Ac Inhibition (LK2) IC50
Method: [Test Example 2] Evaluation of Intracellular H3K27Ac Inhibitory Activity
LK2 cells derived from human squamous cell lung cancer were seeded in a 96 well plate at 40000 cells/100 μL/well, and were cultured overnight at 37° C. in 5% CO2. The LK2 cells were purchased from Human Science Research Resources Bank. […] The supernatant was discarded, 4% paraformaldehyde was added thereto at 100 μL/well, and the resultant was allowed to stand still at room temperature for 15 minutes. The 4% paraformaldehyde was discarded, and the resultant was washed with PBS-T. A quenching buffer (PBS-T containing 1% H2O2) was added thereto at of 100 μL/well, and the resultant was allowed to stand still at room temperature for 10 minutes. The resultant was washed with PBS-T, a blocking buffer (StartingBlocK T20 (TBS) Blocking Buffer (Thermo […], #37543)) was added thereto at 200 μL/well, and the resultant was allowed to stand still at room temperature for 1 hour. The supernatant was discarded, Acetyl-Histone H3 (Lys27) (D5E4) XP (registered trademark) Rabbit mAb (cell Signaling, #8173) diluted with a blocking buffer was added thereto at 50 μL/well, and the resultant was allowed to stand still at 4° C. overnight. The resultant was washed with PBS-T, Anti-Rabbit IgG-HRP (Cell Signaling, #7074S) diluted with a blocking buffer was added thereto at 50 μL/well, and the resultant was cultured at room temperature for 1 hour. The resultant was washed with PBS-T, SuperSignal (registered trademark) ELISA Pico Chemiluminescent Substrate (Thermo […], #37069) was added thereto at 50 μL/well, and a signal was measured using EnVision.

CREBBP = CREBBP (Homo sapiens, UniProt Q92793); test: Histone acetyltransferase inhibitory activity against CREBBP (Test Example 1); assay type: biochemical; conditions: 125 ng/mL CREBBP, 2 μM Acetyl-CoA, 100 nM Histone H4(1-25)-GSGSK (Biotin), 28° C. for 1 hour
Sequence of CREBBP (Q92793 whole entry): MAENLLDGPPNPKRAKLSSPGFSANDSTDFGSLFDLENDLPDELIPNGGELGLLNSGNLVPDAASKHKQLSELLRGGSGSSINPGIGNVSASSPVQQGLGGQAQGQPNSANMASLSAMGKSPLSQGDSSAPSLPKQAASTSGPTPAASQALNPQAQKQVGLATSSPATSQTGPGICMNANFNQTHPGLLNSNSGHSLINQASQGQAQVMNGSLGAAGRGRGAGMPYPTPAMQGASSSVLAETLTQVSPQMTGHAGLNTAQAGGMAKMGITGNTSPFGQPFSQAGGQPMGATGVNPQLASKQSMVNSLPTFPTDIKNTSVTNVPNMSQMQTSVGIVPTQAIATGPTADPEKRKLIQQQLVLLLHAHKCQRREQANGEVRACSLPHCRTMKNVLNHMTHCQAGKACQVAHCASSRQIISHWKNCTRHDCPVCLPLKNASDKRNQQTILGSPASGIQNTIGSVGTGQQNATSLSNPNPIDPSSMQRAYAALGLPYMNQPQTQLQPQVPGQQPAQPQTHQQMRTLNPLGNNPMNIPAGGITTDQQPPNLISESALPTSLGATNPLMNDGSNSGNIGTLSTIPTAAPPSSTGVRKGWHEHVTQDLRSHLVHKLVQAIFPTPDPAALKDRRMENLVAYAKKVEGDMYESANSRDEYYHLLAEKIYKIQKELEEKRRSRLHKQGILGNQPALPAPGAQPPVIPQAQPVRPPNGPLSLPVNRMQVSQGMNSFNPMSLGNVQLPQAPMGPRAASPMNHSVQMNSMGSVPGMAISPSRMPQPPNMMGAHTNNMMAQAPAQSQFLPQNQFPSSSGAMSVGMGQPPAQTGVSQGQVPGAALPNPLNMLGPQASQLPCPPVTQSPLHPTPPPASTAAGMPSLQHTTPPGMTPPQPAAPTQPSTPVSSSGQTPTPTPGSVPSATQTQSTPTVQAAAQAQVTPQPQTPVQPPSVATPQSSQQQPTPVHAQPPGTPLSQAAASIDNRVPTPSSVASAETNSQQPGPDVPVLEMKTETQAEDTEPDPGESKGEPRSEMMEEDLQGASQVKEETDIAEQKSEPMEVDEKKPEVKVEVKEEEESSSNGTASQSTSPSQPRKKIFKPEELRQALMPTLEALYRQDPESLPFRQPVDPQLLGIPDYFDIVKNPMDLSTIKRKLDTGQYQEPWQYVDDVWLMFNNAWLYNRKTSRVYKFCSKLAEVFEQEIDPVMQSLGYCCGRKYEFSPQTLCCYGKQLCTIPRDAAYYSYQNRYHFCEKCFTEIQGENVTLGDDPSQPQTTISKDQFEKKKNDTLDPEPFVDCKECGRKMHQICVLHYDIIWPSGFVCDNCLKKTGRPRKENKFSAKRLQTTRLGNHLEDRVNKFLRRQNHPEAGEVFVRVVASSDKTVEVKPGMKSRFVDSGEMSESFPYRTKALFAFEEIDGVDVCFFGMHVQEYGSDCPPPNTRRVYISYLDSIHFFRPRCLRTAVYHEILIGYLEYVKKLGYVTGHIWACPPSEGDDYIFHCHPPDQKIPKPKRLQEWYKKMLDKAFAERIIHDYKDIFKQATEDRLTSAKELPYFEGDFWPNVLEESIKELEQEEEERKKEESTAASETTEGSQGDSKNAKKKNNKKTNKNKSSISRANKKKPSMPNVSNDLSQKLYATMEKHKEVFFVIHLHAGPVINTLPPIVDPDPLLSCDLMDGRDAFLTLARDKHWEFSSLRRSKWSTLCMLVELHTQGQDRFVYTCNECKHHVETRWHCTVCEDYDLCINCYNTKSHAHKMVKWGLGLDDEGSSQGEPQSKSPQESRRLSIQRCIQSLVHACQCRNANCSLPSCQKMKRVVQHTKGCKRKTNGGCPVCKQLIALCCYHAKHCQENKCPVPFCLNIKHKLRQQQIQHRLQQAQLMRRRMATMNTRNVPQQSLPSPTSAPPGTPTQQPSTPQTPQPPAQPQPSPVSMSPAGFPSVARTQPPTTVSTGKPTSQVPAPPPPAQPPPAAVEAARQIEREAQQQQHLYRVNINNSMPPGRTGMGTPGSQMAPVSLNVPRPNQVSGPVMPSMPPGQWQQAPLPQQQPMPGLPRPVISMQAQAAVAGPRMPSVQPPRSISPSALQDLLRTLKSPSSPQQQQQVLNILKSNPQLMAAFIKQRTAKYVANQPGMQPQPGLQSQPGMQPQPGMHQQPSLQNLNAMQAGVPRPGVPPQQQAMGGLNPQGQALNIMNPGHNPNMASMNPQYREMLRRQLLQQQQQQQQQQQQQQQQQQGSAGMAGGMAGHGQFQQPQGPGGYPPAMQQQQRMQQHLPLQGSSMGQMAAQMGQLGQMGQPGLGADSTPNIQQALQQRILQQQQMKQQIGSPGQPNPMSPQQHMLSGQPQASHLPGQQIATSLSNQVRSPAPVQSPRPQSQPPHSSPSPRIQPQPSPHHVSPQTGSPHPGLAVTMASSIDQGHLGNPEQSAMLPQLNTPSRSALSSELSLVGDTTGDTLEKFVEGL
Method: (§4) [Test Example 1] Evaluation of Histone
(§5) Acetyltransferase Inhibitory Activity against EP300 and CREBBP
(§6) 10 μL each of reaction solutions each containing a different concentration of the compound of each of Examples 1 to 108b (50 mM Tris-HCl (pH8.0), 0.1 mM EDTA, 1 mM dithiothreitol, 0.01% Tween-20, 0.01% Bovine serum albumin, 330 nM trichostatin A, 2 μM Acetyl-CoA (Sigma-Aldrich, #A2056), 100 nM Histone H4(1-25)-GSGSK (Biotin) (Anaspec, #65242-1), 1% dimethyl sulfoxide, 10 to 0.0006 μM of each compound, 50 ng/mL EP300 or 125 ng/mL CREBBP) was added to respective wells of a 384-well plate, and cultured at 28° C. for 1 hour. Thereafter, 5 μL of 30 μM Lys-CoA (Daiichi Sankyo Co., Ltd.) dissolved in LANCE detection buffer (Perkin Elmer Co., Ltd., #CR97-100) was added to each well. Furthermore, 5 μL of LANCE detection buffer containing 2 nM Eu-anti pan-Ac (Perkin Elmer Co., Ltd., #TRF0412) and 50 nM Sta-Ulight (Perkin Elmer Co., Ltd., #TRF0102) was added to each well, and the resultant was cultured at room temperature overnight. EnVision (Perkin Elmer Co., Ltd., Model 2104-0020) was used to measure ULight signals. […] EP300 and CREBBP were produced and purified by Daiichi Sankyo RD Novare Co., Ltd.

EP300 = EP300 (Homo sapiens, UniProt Q09472); test: Histone acetyltransferase inhibitory activity against EP300 (Test Example 1); assay type: biochemical; conditions: 50 ng/mL EP300, 2 μM Acetyl-CoA, 100 nM Histone H4(1-25)-GSGSK (Biotin), 28° C. for 1 hour
Sequence of EP300 (Q09472 whole entry): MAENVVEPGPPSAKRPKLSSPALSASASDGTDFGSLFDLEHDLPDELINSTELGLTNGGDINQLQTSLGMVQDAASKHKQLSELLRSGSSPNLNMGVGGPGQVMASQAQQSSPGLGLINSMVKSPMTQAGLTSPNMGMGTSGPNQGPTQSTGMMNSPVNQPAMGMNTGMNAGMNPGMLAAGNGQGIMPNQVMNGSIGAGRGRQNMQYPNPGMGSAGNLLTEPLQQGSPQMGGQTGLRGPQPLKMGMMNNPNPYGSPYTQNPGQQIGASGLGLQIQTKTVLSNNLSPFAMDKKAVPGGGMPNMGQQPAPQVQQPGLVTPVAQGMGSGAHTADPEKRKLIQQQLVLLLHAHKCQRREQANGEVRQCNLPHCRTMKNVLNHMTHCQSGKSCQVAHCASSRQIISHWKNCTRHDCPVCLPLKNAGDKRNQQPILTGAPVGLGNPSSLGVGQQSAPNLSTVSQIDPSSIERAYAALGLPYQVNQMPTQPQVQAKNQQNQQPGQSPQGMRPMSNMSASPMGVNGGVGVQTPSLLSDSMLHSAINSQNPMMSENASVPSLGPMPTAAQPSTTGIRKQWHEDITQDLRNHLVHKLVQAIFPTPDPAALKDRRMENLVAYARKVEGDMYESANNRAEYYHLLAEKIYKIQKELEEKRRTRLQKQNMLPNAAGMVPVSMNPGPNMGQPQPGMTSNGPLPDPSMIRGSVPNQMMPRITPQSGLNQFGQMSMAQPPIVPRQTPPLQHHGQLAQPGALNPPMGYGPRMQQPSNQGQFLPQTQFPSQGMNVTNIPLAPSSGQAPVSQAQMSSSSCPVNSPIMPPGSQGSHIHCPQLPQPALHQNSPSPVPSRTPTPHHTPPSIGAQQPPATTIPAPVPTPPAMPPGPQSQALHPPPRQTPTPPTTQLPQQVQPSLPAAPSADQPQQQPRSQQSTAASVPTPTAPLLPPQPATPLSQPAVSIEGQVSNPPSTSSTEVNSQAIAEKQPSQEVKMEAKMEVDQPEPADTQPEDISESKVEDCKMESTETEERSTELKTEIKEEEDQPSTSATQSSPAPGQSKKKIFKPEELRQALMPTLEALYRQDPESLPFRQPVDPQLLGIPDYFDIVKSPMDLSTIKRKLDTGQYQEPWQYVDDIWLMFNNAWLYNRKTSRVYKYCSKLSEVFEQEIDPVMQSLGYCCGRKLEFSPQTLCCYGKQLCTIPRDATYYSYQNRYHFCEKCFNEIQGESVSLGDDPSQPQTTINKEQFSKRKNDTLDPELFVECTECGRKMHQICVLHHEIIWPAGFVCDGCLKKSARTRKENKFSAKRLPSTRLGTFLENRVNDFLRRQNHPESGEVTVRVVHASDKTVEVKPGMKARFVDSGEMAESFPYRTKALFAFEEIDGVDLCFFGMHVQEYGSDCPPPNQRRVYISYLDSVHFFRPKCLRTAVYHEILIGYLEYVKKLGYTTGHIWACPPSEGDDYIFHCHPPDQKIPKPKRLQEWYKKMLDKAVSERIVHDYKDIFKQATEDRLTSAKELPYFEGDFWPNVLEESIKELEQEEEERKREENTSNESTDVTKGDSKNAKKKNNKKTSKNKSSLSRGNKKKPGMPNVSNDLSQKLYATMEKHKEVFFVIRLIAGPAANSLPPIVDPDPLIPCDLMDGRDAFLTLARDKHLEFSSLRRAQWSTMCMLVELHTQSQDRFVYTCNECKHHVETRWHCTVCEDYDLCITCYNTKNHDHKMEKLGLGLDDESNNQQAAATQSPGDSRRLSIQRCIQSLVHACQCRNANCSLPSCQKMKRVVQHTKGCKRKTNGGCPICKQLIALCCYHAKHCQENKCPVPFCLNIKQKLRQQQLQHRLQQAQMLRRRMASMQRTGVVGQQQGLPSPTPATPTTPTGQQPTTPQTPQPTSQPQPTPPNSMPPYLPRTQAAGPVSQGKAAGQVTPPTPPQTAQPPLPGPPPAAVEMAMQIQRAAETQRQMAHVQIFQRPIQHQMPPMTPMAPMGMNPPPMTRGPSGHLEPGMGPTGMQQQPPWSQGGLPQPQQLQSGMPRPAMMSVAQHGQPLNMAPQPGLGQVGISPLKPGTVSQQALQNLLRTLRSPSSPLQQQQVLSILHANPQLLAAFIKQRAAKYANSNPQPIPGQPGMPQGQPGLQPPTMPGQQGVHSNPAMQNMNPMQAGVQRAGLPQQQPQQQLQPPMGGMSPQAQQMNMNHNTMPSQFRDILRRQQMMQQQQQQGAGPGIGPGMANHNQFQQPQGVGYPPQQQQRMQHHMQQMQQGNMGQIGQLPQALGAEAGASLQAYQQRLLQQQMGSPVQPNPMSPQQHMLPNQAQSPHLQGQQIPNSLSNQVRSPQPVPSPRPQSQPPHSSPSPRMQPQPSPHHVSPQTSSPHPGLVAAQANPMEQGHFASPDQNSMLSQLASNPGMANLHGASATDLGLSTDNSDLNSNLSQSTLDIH
Method: as §4, §5, §6

| SMILES | GI50 (TE-8 cells) [nM] | GI50 (LK2 cells) [nM] | IC50 (H3K27Ac) [nM] | IC50 (CREBBP) [nM] | IC50 (EP300) [nM] |
| --- | --- | --- | --- | --- | --- |
| COc1ccc(C2(C(=O)N(C)[C@H](C)C(=O)Nc3ccc4[nH]ncc4n3)CCCCC2)cc1 [Example 46] | 145 | 147 | 14 | 45 | 24 |
| COc1ccc(C2(C(=O)N3C[C@H](F)C[C@@H]3C(=O)Nc3ccc4[nH]ccc4n3)CCCCC2)cc1 [Example 50] | 288 | 166 | 27 | 27 | 20 |
| CC(C)(O)c1ccc(C2(C(=O)N3C[C@H](F)C[C@@H]3C(=O)Nc3ccc4[nH]ncc4n3)CCC(F)(F)CC2)cc1 [Example 98, (4R)-1-({4,4-Difluoro-1-[4-(2-hydroxypropan-2-yl)phenyl]cyclohexyl}carbonyl)-4-fluoro-N-1H-pyrazolo[4,3-b]pyridin-5-yl-D-prolinamide] | 331 | 267 | 62 | 202 | 76 |
| COc1ccc(C2(C(=O)N3C[C@H](F)C[C@@H]3C(=O)Nc3ccc4[nH]ncc4n3)CCCCC2)cn1 [Example 63] | 117 | 86 | 15 | 43 | 34 |
| CC(=O)c1ccc(C2(C(=O)N3C[C@H](F)C[C@@H]3C(=O)Nc3ccc4[nH]ncc4n3)CCCCC2)cc1 [Example 83, (4R)-1-{[1-(4-Acetylphenyl)cyclohexyl]carbonyl}-4-fluoro-N-1H-pyrazolo[4,3-b]pyridin-5-yl-D-prolinamide] | 151 | 203 | 19 | 61 | 33 |
| COc1ccc(C2(C(=O)N3C[C@H](F)C[C@@H]3C(=O)Nc3ccc4[nH]ccc4n3)CCC(F)(F)CC2)cc1 [Example 51] | 916 | 351 | 50 | 54 | 41 |
| COc1ccc(C2(C(=O)N3C[C@@H](O)C[C@@H]3C(=O)Nc3ccc4[nH]ncc4n3)CCCCC2)cc1 [Example 71, (4S)-4-Hydroxy-1-{[1-(4-methoxyphenyl)cyclohexyl]carbonyl}-N-1H-pyrazolo[4,3-b]pyridin-5-yl-D-prolinamide] | 1540 | 797 | 139 | 94 | 99 |
| O=C(Nc1ccc2[nH]ncc2n1)[C@H]1C[C@@H](F)CN1C(=O)C1(c2ccc(-c3ccccc3)c(F)c2)CCC(F)(F)CC1 [Example 94] | 586 | 625 | 123 | 305 | 109 |
| O=C(Nc1ccc2[nH]c(CO)cc2n1)[C@H]1C[C@@H](F)CN1C(=O)C1(c2ccc(OC(F)F)cc2)CCC(F)(F)CC1 [Example 106, (4R)-1-({1-[4-(Difluoromethoxy)phenyl]-4,4-difluorocyclohexyl}carbonyl)-4-fluoro-N-[2-(hydroxymethyl)-1H-pyrrolo[3,2-b]pyridin-5-yl]-D-prolinamide] | 337 | 250 | 39 | 43 | 24 |
| COCO[C@@H]1CN(C(=O)C2(c3ccc(OC)cc3)CCC(F)(F)CC2)[C@H]1C(=O)Nc1ccc2[nH]ncc2n1 [Example 96, (2R,3R)-1-{[4,4-Difluoro-1-(4-methoxyphenyl)cyclohexyl]carbonyl}-3-(methoxymethoxy)-N-(1H-pyrazolo[4,3-b]pyridin-5-yl)azetidine-2-carboxamide] | > 10000 | > 10000 | > 1000 | 2170 | 2470 |
| COc1ccc(C2(C(=O)N3CCC[C@@H]3C(=O)Nc3cccc4[nH]ncc34)CCCC2)cc1 [Example 1, N-1H-Indazol-4-yl-1-{[1-(4-methoxyphenyl)cyclopentyl]carbonyl}-D-prolinamide] | 3410 | 2740 | – | 218 | 176 |
| O=C(Nc1ccc2[nH]ncc2n1)[C@H]1C[C@@H](F)CN1C(=O)C1(c2ccc(C(=O)C(F)(F)F)cc2)CCCCC1 [Example 61, (4R)-4-Fluoro-N-1H-pyrazolo[4,3-b]pyridin-5-yl-1-({1-[4-(trifluoroacetyl)phenyl]cyclohexyl}carbonyl)-D-prolinamide] | 216 | 149 | 21 | 95 | 56 |
| COc1ccc(C2(C(=O)N3C[C@H](F)C[C@@H]3C(=O)Nc3ccc4[nH]ncc4n3)CC(F)(F)C2)cc1 [Example 56, (4R)-1-{[3,3-Difluoro-1-(4-methoxyphenyl)cyclobutyl]carbonyl}-4-fluoro-N-1H-pyrazolo[4,3-b]pyridin-5-yl-D-prolinamide] | 88.3 | 98.8 | 20 | 64 | 24 |
| O=C(Nc1ccc2[nH]ncc2n1)[C@H]1C[C@@H](F)CN1C(=O)C1(c2ccc(OC(F)F)c(F)c2)CCC(F)(F)CC1 [Example 89] | 491 | 279 | 62 | 61 | 38 |
| O=C(Nc1ccc2[nH]ncc2n1)[C@H]1C[C@@H](F)CN1C(=O)C1(c2ccc(OCF)cc2)CCC(F)(F)CC1 [Example 48] | 135 | 105 | 25 | 34 | 14 |
| O=C(Nc1ccc2[nH]ncc2n1)[C@H]1C[C@@H](F)CN1C(=O)C1(c2ccc(NS(=O)(=O)c3ccccc3)cc2)CCC(F)(F)CC1 [Example 104, (4R)-1-[(4,4-Difluoro-1-{4-[(phenylsulfonyl)amino]phenyl}cyclohexyl)carbonyl]-4-fluoro-N-1H-pyrazolo[4,3-b]pyridin-5-yl-D-prolinamide] | 656 | 512 | 138 | 58 | 26 |
| O=C(Nc1ccc2[nH]ncc2n1)[C@H]1C[C@@H](F)CN1C(=O)C1(c2ccc(O)cc2)CCCCC1 [Example 82, (4R)-4-Fluoro-1-{[1-(4-hydroxyphenyl)cyclohexyl]carbonyl}-N-1H-pyrazolo[4,3-b]pyridin-5-yl-D-prolinamide] | 89.3 | 75.1 | 13 | 21 | 12 |
| COc1ccc(C2(C(=O)N3CCC[C@@H]3C(=O)Nc3cccc4[nH]ncc34)CCC2)cc1 [Example 53, N-1H-Indazol-4-yl-1-{[1-(4-methoxyphenyl)cyclobutyl]carbonyl}-D-prolinamide] | 6060 | 2640 | 2080 | – | – |
